The record followed here is publication PMC5154303, “Flavonol and imidazole derivatives block HPV16 E6 activities and reactivate apoptotic pathways in HPV^+ cells” (Cell Death & Disease, 2016).

One assay deals with T1, GST-E6/His-caspase 8 (Human papillomavirus type 16, UniProt P03126).
T1 construct: made in house
Description: AlphaScreen bead-based binding assay GST-E6/His-caspase 8. The arrangement: species or system HPV 16. The settings on record: for EC50 for GST-E6/His-caspase 8 interaction: bead-based assay, 1.4 μM–3.2 mM tested. Here is the method:
(§1) Figure 2 3-(1H-indol-1yl)propan-1-amine (1), three benzimidazole derivatives (2–4), and spinacine (5) inhibit protein–protein interactions. Five compounds at the indicated concentrations (1.4 μM–3.2 mM) were tested using our bead-based screening assay for their ability to inhibit three different protein/protein interactions: (a) GST-E6/His-caspase 8; (b) GST-E6/HisE6AP; and (c) GST-caspase 8/His-caspase 8. Binding in the presence of 1.4 μM of the test compound was set at 100%. Experiments were performed in triplicate, and error bars indicate the S.D.
(§2) The construction of the pGEX-E6, pTriEx-E6AP, and pTriEx-Caspase-8 DED plasmids has been reported.[33] Expression and purification of GSTE6, His-E6AP, and His-Caspase-8 DED were carried out as previously described.[33], [37] GST-tagged and His-tagged proteins were diluted into GST dilution buffer (PBS pH 8.0, 5% glycerol, 2 mM DTT) and His dilution buffer (20 mM Hepes pH 7.4, 150 mM NaCl, 2 mMKCl, 5% glycerol, 2 mM DTT), respectively. Protein concentration was measured using Coomassie Plus – The Better Bradford Assay Reagent (Thermo Scientific, Waltham, MA, USA). Purity of the isolated proteins was estimated following separation by sodium dodecyl sulfate-polyacrylamide gel electrophoresis (SDS-PAGE) and Coomassie staining.
(§3) AlphaScreen Technology was used to assess the interactions between GST-E6, GST-caspase 8, His-E6AP, and His-caspase 8. Binding assays were performed in white 384-well plates (Perkin-Elmer) in a total volume of 25 μl as previously described.[33] Briefly, 5 μl (50 ng) of GST-E6 and 5 μl (87.5 ng) of His-caspase 8 were included in each reaction mixture with 5 μl blocking buffer (0.5 mg BSA, 0.5% Tween 20 in PBS) in the absence or presence of 10 μM of each test chemical. Members of the library were present at 10 μM in DMSO. After a 1-h incubation of the mixture at room temperature, 5 μl donor beads and 5 μl acceptor beads (Perkin-Elmer) were added to each well according to the manufacturer's protocol. The mixture was incubated in the dark at room temperature overnight, and the emitted signal was detected using the Envision Multilabel plate reader (Perkin-Elmer). In the presence of test chemicals, the binding affinity was calculated as a percentage of the binding in the presence of carrier only (DMSO).
For orientation: In Alpha technology, singlet oxygen from a donor bead excites a nearby acceptor bead.

Assay [1] addresses GST-caspase 8/His-caspase 8 (Homo sapiens, UniProt Q14790). Description: AlphaScreen counter-screen GST-caspase 8/His-caspase 8. Type of assay: binding. Here is the method: as §1
To ask whether this inhibition was specific, we employed a counter-screening assay in which we assessed the ability of candidates to inhibit the binding of GST-caspase 8 to His-caspase 8; those that did were to be eliminated. In this counter-screening assay, the materials in each well were the same as in the primary screen, with the exception that GST-caspase 8 replaced GST-E6.
as §3

A further assay deals with T2, GST-E6/His-E6AP (Human papillomavirus type 16, UniProt P03126).
T2 construct: made in house
T2 sequence (P03126 whole entry): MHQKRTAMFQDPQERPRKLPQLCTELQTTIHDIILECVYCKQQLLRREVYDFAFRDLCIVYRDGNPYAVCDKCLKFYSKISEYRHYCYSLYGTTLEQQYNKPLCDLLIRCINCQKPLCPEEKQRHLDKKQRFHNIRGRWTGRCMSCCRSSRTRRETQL
As to the kind of experiment: AlphaScreen bead-based binding assay GST-E6/His-E6AP. The note with it: for EC50 for GST-E6/His-E6AP interaction: bead-based assay, 1.4 μM–3.2 mM tested. The arrangement: species or system HPV 16. Here is the method: as §1, §2, §3

For another assay, the system named is SiHa cells. Description: TRAIL-induced apoptosis in SiHa cells (MTT). Type of assay: cell-based, human. The settings on record: SiHa cells, compound 4 h prior to TRAIL 100 ng/ml + cycloheximide 5 μg/ml, overnight, MTT. Here is the method:
Figure 3 (a) HPV^+ SiHa cells are resistant to TRAIL-induced apoptosis as compared with the human osteosarcoma cell line U2OS. Cells (2 × 10^4 cells per well) were seeded into a 96-well plate, allowed to incubate overnight, and then treated with the indicated concentration of TRAIL in the presence of cycloheximide (5 μg/ml). The viability of cells was measured after overnight incubation using the MTT assay; the viability of cells untreated with TRAIL was set at 100% for each group. (b) The indicated concentrations of three small molecules were added to SiHa cells, and an MTT assay was preformed after overnight incubation. The viability of cells untreated with small molecules was set as 100%. (c) The indicated concentrations of myricetin or spinacine were added 4 h prior to TRAIL (100 ng/ml) in the presence of cycloheximide (5 μg/ml) and incubated at 37 °C overnight. The viability of cells untreated with small molecules was set at 100%. (d and e) SiHa cells (2 × 10^4 cells per well) were seeded into a 96-well plate and allowed to incubate overnight. In all, 100 μM of myricetin and 50 μM of spinacine were added 4 h prior to either (d) doxorubicin or (e) cisplatin. Cell viability was measured after overnight incubation using the MTT assay, and the viability of cells untreated with either myricetin or spinacine was set at 100%. Experiments were performed in triplicate, and error bars indicate the S.D.
Figure 5 Myricetin and spinacine (5) can re-sensitize HPV^+, but not HPV^−, cells to treatment with TRAIL. SiHa (2 × 10^4 cells per well) and C33A cells (1 × 10^4 cells per well) were seeded into a 96-well plate and allowed to incubate overnight, and then cells were pretreated in the presence or absence of (a) myricetin (100 μM) or (b) spinacine (50 μM) for 4 h. The indicated concentration of TRAIL along with cycloheximide (5 μg/ml) was added, and the cells were allowed to incubate overnight. Cell viability was measured by MTT assay, and the viability of cells untreated with TRAIL was set at 100%. Experiments were performed in triplicate, and error bars indicate the S.D.
The extracellular domain of human TRAIL was cloned into a pTriEx expression plasmid containing N-terminal Hisx6 tag. His-TRAIL was expressed in the E. coli BL-21 pLys strain and purified as previously described. Doxorubicin and cisplatin were purchased from Sigma. His-TRAIL, doxorubicin, and cisplatin were diluted in PBS to the desired concentration before using. To measure cell survival following treatment with TRAIL, cisplatin and doxorubicin, SiHa (2 × 10^4/well), C33A (1 × 10^4/well), and HNSCC cells (2 × 10^4/well) were seeded into 96-well plates and allowed to adhere overnight. Small molecules at the desired concentration were added and incubated at 37 °C for 4 h. As indicated, TRAIL, cisplatin, or doxorubicin was then added. The TRAIL treatment group contained cycloheximide (5 μg/ml) to inhibit de novo protein synthesis, and the cells were incubated for 16 h prior to measuring cell viability by the MTT assay preformed as described previously.[38] All experiments were repeated at least three times (three biological replicates, carried out on different days), with each experimental group measured in triplicate within each of these individual experiments. Data presented are from a representative experiment.

Where [2] appears, read: counter-screen, bead-based assay, 1.4 μM–3.2 mM tested.

Read-outs that look alike come from different tables or passages of the source.

T1 sequence (P03126 whole entry): as above
Sequence of GST-caspase 8/His-caspase 8 (Q14790 1-184): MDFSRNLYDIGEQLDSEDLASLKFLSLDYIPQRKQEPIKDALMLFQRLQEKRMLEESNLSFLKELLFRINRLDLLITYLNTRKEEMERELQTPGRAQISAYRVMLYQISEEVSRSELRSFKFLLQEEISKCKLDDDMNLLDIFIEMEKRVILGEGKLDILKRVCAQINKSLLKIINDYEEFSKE

On to `NCCCn1ccc2ccccc21` [compound 1, 3-(1H-indol-1-yl)propan-1-amine methanesulfonate], for which the EC50 on GST-E6/His-caspase 8 is 630 µM; in assay [1] (counter-screen, bead-based assay, 1.4 μM–3.2 mM tested, read-out: EC50 for GST-caspase 8/His-caspase 8 interaction), 830 µM; at GST-E6/His-E6AP, 670 µM.
`c1ccc2[nH]cnc2c1` [compound 2, benzimidazole]: the EC50 at GST-E6/His-caspase 8 worked out at 1040 µM; in assay [1], 1050 µM; on GST-E6/His-E6AP it was 1480 µM.
As to `OCn1cnc2ccccc21` [compound 3, 1H-benzimidazole-1-methanol], the “EC50 for GST-E6/His-caspase 8 interaction” value at GST-E6/His-caspase 8 is given as “No Inhibition”. Also, the “EC50 for GST-caspase 8/His-caspase 8 interaction” value in assay [1] (setting [2]) is reported as “No Inhibition”. Further, on GST-E6/His-E6AP, the “EC50 for GST-E6/His-E6AP interaction” value is on record as “No Inhibition”. Also, the “EC50 for TRAIL-induced apoptosis” value with SiHa cells is “No sensitization”.
In the case of `COCc1nc2ccccc2[nH]1` [compound 4, 2-(methoxymethyl)-1H-benzimidazole], the “EC50 for GST-E6/His-caspase 8 interaction” value on GST-E6/His-caspase 8 was “No inhibition”. In assay [1] (setting [2]), the “EC50 for GST-caspase 8/His-caspase 8 interaction” value was “No inhibition”. Moreover, on GST-E6/His-E6AP, the “EC50 for GST-E6/His-E6AP interaction” value is “No inhibition”.
